“Also recorded” adds a separate entry of the source. Non-standard residues stand in square brackets, D forms with d. Residues, ends and D or L forms follow the SMILES beside them.
Key:
[1] = rabbit, in vivo
Method: PIK2 dose of 5 mg/kg was calculated individually for each rabbit and administered into marginal ear vein in a final volume of 1.7-1.9 mL in sterile physiological saline. Stock concentration of the tested substance was 10 mg/mL.
During the 24-hrs testing period, the overall health status and behavior were monitored (appetite, motion activity, hair coat condition).
Before injection of test substances (baseline) and 4 hrs and 24 hrs after the injection, the following parameters were tested in whole venous blood samples (3.0-3.5 mL) collected from a marginal ear vein red blood cell (RBC) count, hematocrit, hemoglobin level, mean RBC volume, mean corpuscular hemoglobin, total leukocyte, lymphocyte, and granulocyte counts and their percentages, platelet count, and mean platelet volume. In parallel, the following biochemical parameters were measured in serum total protein, bilirubin, urea, creatinine, glucose, total cholesterol, triglycerides, and activities of alkaline phosphatase, lactate dehydrogenase, aspartate aminotransferase, and alanine aminotransferase. Blood cell count was performed using an Abacus junior vet (Austria) hematological cell counter; biochemical studies were performed using a Targa-2000 (Italy) instrument.

[2] = tested on: myosin regulatory light chain (RLC) phosphorylation in EA.hy926 endothelial cells; assay: Thrombin-induced myosin RLC phosphorylation in endothelial cells (immunoblotting); type: cell-based; details: peptide 100 μM, 1 hr; thrombin 100 nM, 20 min
Method: FIG. 4. Inhibition of the thrombin-induced RLC phosphorylation in EA.hy926 endothelial cells by PIK2, PIK7 ([D-Lys^12]-MLC11-19), or MLC11-19 MLCK peptide inhibitors. Inhibitors were added up to 100 μM, n=3-5. p<0.05 for PIK2, PIK7 vs control (0, 20 min). p<0.05 for PIK2 vs PIK7 (0, 20 min).
Inhibitory effects of the claimed peptide (PIK7), its prototype (PIK2), and analogue (MLC11-19) were compared in an assay of myosin regulatory light chain (RLC) phosphorylation in vitro as described in Example 4.
Antagonistic effects of MLCK peptide inhibitors on the thrombin-mediated RLC phosphorylation in EA.hy926 endothelial cells were tested as follows. The cells were grown in 35-mm dishes in DMEM at 37° C. and the 5% CO2 atmosphere until the monolayer formed. Then, the cells were serum-starved while simultaneously incubated with 100 μM MLCK inhibitors at 37° C., 5% CO2 for 1 hr (control, 0 min). Next, the cells were stimulated with 100 nM thrombin for 20 min and collected on ice, i.e. the medium was decanted, the cells were washed with cold PBS and lysed with 100 μL of Laemmli denaturing electrophoresis buffer. The sample proteins were separated by SDS-PAGE and proceeded to immunoblotting with anti-total, anti-monophosphorylated, and anti-diphosphorylated RLC. […]

SMILES: C[C@H](NC(=O)[C@H](C)NC(=O)[C@H](CCCNC(=N)N)NC(=O)[C@@H](CCCCN)NC(=O)[C@@H](N)CCCCN)C(=O)N[C@@H](CCCNC(=N)N)C(=O)N[C@@H](C)C(=O)N[C@H](C(=O)N[C@@H](CO)C(N)=O)[C@@H](C)O [PIK7, H-Lys-D-Lys-Arg-Ala-Ala-Arg-Ala-Thr-Ser-NH2] (H-K[dK]RAARATS-NH2)
- LD50 [1]: > 10 mg/kg
- inhibition of thrombin-induced RLC phosphorylation [2]: inhibited myosin RLC phosphorylation in endothelial cells with efficacy higher than that of either the prototype, PIK2, or the analogue, MLC11-19; also recorded: inhibits RLC phosphorylation in endothelial cells and its efficacy is superior to both the prototype, PIK2, and the analogue, MLC11-19

Source: patent US20210340178A1, “NONAPEPTIDE PREVENTING INCREASED HYPERPERMEABILITY OF VASCULAR ENDOTHELIUM” (FEDERALNOYE GOSUDARSTVENNOE BUDGETNOE UCHREZHDENIE …, priority 2018, published 2021)
